Experimental data as given in patent publication US7728036B2, “Methods for delivery of catecholic butanes for treatment of tumors” (priority 2003, dated 2010).
Entries after “also recorded” stand apart in the source; their conditions may differ.

How the values were obtained:
Solubility character = format: physicochemical
head and neck cancer = assay: Ex-US clinical study in head and neck cancer, daily M4N with or without G4N followed by surgical resection; format: in vivo, human
[1] = test system: HT-29 colorectal carcinoma cells; assay: Xenograft assay of human tumors in athymic nude mice, HT-29; format: in vivo
From the text: (§1) Xenograft Assay of Human Tumors.
(§2) Control mice received vehicle only.

[2] = test system: Hep3B hepatocellular carcinoma cells; assay: Xenograft assay of human tumors in athymic nude mice, Hep3B; format: in vivo
From the text: as §1, §2

[3] = test system: LNCaP prostate carcinoma cells; assay: Xenograft assay of human tumors in athymic nude mice, LNCaP; format: in vivo, mouse
From the text: as §1, §2

[4] = test system: HPV-16 transformed immortal mouse epithelial cells (C3); settings: intratumor injection; cited from earlier work
[5] = test system: various human tumor cells; assay: Cell culture analyses of tumor cell growth; format: cell-based
[6] = test system: human tumor xenografts (MCF-7, Hep3B, HT-29, LNCaP); settings: all four tumor types, of 39 M4N-treated tumors, 21 days
[7] = test system: MCF-7 breast adenocarcinoma cells; assay: Xenograft assay of human tumors in athymic nude mice, MCF-7; format: in vivo
From the text: as §1, §2

[8] = Tissue distribution after long-term (14 weeks) oral feeding of M4N (HPLC); format: in vivo, mice; settings: 14 weeks continuous oral feeding of M4N food balls
Description: Tissue Distribution and Toxicity Analysis Following Short-Term and Long-Term Oral Feeding. For short-term feeding experiments, 30 mg of M4N dissolved in 300 μL castor oil was orally administered to each of 6 mice. At 2 h, 4 h, and 8 h post-administration time points, 2 mice were sacrificed, the organs and blood were collected, and the M4N extracted and quantitated as described below. In long-term feeding experiments, mice were fed food balls consisting of M4N dissolved in corn oil and Basal Mix (Harlan Teklad; Madison, Wis.; Cat. # TD 02273) for 14 weeks. Food balls weighed 9 g and contained 242 mg M4N each. Two mice, one male and one female, were reserved for long-term drug retention studies; and fourteen mice, both male and female, were used for long-term drug toxicity studies. At the end of feeding, mice were sacrificed, the organs and blood were collected, and the M4N extracted and quantitated as described below.
M4N Extraction and HPLC Analysis Following Oral Feeding. Organs and blood were harvested from M4N-fed mice, then frozen overnight at −80° C. Prior to freezing, gastro-intestinal organs (stomach, small intestine, colon) were cut open longitudinally and washed thoroughly with PBS to remove any contents. The following day, organs were cut into small pieces on dry ice with a razor blade, dried in a Speed-vac, then crushed into a rough powder using a mortar and pestle. Samples were extracted overnight in 100% ethanol with shaking. Samples were centrifuged and the supernatant collected. Pellets were extracted two more times in 100% ethanol overnight with shaking. The pooled ethanol extracts were evaporated on bench top for several days, then re-extracted with ethyl acetate, and dried completely in a Speed-vac. The dried samples were then analyzed quantitatively by HPLC and M4N was identified by mass spectroscopy using pure M4N as a standard.
HPLC Quantitation of M4N. Samples from a single mouse at each time point were sent to KP Pharmaceuticals (Bloomington, Ind.) for HPLC analysis. HPLC conditions were described as follows: 35%:0.1% TFA in H2O, 65%=“CAN.” The M4N standard was prepared by diluting 10.01 mg M4N in 100 mL of CAN, then sonicating for 5 min. (2002 ng/injection). The samples were prepared by adding 400 μL EtOH and sonicating for 2 min. or until complete dissolution was achieved. The injection volume for the samples was 100 μL.
The objective of the long-term feeding experiments was to measure the steady state levels of M4N in various mouse organs following continuous oral administration for 14 weeks. Food balls weighing approximately 9 g and containing approximately 280 mg M4N were continually fed to wild-type mice for 14 weeks. A single 9 g food ball is consumed by a single mouse in about 3 days, which translates to […] of M4N consumed or administered daily. […] Between 350 μg and 900 μg M4N per gram tissue was measured in the GI tract organs and the spleen; 15 μg/g to 30 μg/g M4N was measured in the lungs, pancreas, seminal vesicles, blood, and fat; and 5 μg/g to 13 μg/g M4N was measured in the heart, liver, kidneys, and bladder.

[9] = Toxicokinetic analysis of M4N serum concentration in beagle dogs; settings: dog, in vivo
Description: Blood samples from the CET group animals were collected via the jugular vein on Study Day (SD) 1, SD 3, SD 6, and SD 8 at the following timepoints: predose, 0.25, 0.5, 1, 2, 4, 8, and 16 hours following the completion of the approximate 4-hour infusion.
Blood samples from the DMSO group animals were collected via the cephalic vein on SD 1, SD 3, SD 6, and SD 8 at the following timepoints: predose, 0.25, 0.5, 1, 2, 4, 8, and 16 hours following the final injection dose of M4N-DMSO.
Blood samples collected from both groups of animals were processed for plasma and serum for TK analysis.
The plasma and serum samples were sent to MedTox Laboratories, the Sponsor's designated laboratory for TK analysis. TK analysis of M4N plasma and serum concentration-time data was performed using a validated method (M200406) by MedTox Laboratories and analyzed by noncompartmental methods to obtain estimates of toxicokinetic parameters (where data allow), but not necessarily limited to, Cmax, Tmax and AUC.

[10] = Maximal tolerable dose study in beagle dogs, clinical observations; format: in vivo; settings: over four hours
[11] = HT-29, of 11 M4N-treated tumors, 21 days i.p. treatment
[12] = Hep 3B, of 7 M4N-treated tumors, 21 days i.p. treatment
[13] = LNCaP, of 11 M4N-treated tumors, 21 days i.p. treatment
[14] = MCF-7, of 10 M4N-treated tumors, 21 days i.p. treatment

Question: With `COc1ccc(C[C@@H](C)[C@@H](C)Cc2ccc(OC)c(OC)c2)cc1OC` [M4N, meso-1,4-bis(3,4-dimethoxyphenyl)-2,3-dimethylbutane] as the molecule, how does the “Solubility in dimethyl sulfoxide” value (Solubility character) read?
Answer: Its value is “soluble in dimethyl sulfoxide”.

Question: What about the “Water solubility / hydrophilic or lipophilic character” value (Solubility character) of the same molecule?
Answer: Its value is “hydrophobic or lipophilic”.

Question: And the “Dose delivered without drug-related toxicity” value (head and neck cancer; for up to five days, with or without concomitant G4N 20 mg per day)?
Answer: Its value is at most 20 mg per day.

Question: And the “Patients remaining disease free” value (head and neck cancer; long-term follow ups, M4N with or without G4N, then surgical resection)?
Answer: The value was 64%.

Question: And the “Efficacy in terms of induction of necrosis” value (head and neck cancer; patients that completed the treatment)?
Answer: Its value is “over 80%”.

Question: And the “Reduction in mean tumor volume versus control” value (“Reduction” for short) ([1]; HT-29, after 21 days systemic M4N treatment)?
Answer: Its value is 70%.

Question: And the “DOTV: number of tumors with decrease in volume from the original tumor volume” value (“DOTV: number of tumors with decrease” for short) [1, 11]?
Answer: Its value is 3.

Question: And the “IOTV: number of tumors with increase in volume from the original tumor volume” value (shortened to “IOTV: number of tumors with increase”) [1, 11]?
Answer: Its value is 8.

Question: What about the “Tumor Volume Increase (%) - 21 Days Treatment, M4N-Treatment” value (“Tumor Volume Increase (%)” below) ([1]; HT-29 xenograft, 2 mg M4N i.p. daily for 3 weeks) of the same molecule?
Answer: The value was 787%.

Question: What about the “Ratio of Mean M4N-Treated Tumor Size to Control Tumor Size” value (shortened to “Ratio of Mean M4N-Treated Tumor Size”) ([1]; HT-29 xenograft, 2 mg M4N i.p. daily, 21 days) of the same molecule?
Answer: The value was 29.4%.

Question: What about the “Tumor Volume Increase (%)” value ([2]; Hep 3B xenograft, 2 mg M4N i.p. daily for 3 weeks) of the same molecule?
Answer: Its value is 113%.

Question: And the “Ratio of Mean M4N-Treated Tumor Size” value ([2]; Hep 3B xenograft, 2 mg M4N i.p. daily, 21 days)?
Answer: The value was 19.3%.

Question: And the “Reduction” value ([2]; Hep 3B, after 21 days systemic M4N treatment)?
Answer: The value was 80%.

Question: And the “DOTV: number of tumors with decrease” value [2, 12]?
Answer: Its value is 2.

Question: What about the “IOTV: number of tumors with increase” value [2, 12] of the same molecule?
Answer: Its value is 5.

Question: What about the “Tumor Volume Increase (%)” value ([3]; LNCaP xenograft, 2 mg M4N i.p. daily for 3 weeks) of the same molecule?
Answer: The value was 25%.

Question: What about the “Ratio of Mean M4N-Treated Tumor Size” value ([3]; LNCaP xenograft, 2 mg M4N i.p. daily, 21 days) of the same molecule?
Answer: The value was 46.3%.

Question: And the “Reduction” value ([3]; LNCaP, after 21 days systemic M4N treatment)?
Answer: The value was 53%.

Question: What about the “DOTV: number of tumors with decrease” value [3, 13] of the same molecule?
Answer: The value was 9.

Question: And the “IOTV: number of tumors with increase” value [3, 13]?
Answer: The value was 2.

Question: What about the “Growth of LNCaP xenograft tumors” value ([3]; systemic oral administration of M4N) of the same molecule?
Answer: The value was “effectively suppresses the growth”.

Question: And the “Suppression of tumor growth / tumoricidal activity” value [4]?
Answer: Its value is “substantial tumoricidal activity; also recorded: some evidence of suppression of tumor growth”.

Question: What about the “Growth of human tumor cells in culture” value [5] of the same molecule?
Answer: The value was “effectively prevent the growth”.

Question: What about the “DOTV: number of tumors with decrease” value [6] of the same molecule?
Answer: The value was 21.

Question: And the “IOTV: number of tumors with increase” value [6]?
Answer: Its value is 18.

Question: What about the “IOTV: share of tumors with increase in volume” value [6] of the same molecule?
Answer: The value was “(46%)”.

Question: And the “Reduction” value ([7]; MCF-7, after 21 days systemic M4N treatment)?
Answer: Its value is 74%.

Question: What about the “DOTV: number of tumors with decrease” value [7, 14] of the same molecule?
Answer: Its value is 7.

Question: What about the “IOTV: number of tumors with increase” value [7, 14] of the same molecule?
Answer: The value was 3.

Question: And the “Tumor Volume Increase (%)” value ([7]; MCF-7 xenograft, 2 mg M4N i.p. daily for 3 weeks)?
Answer: The value was 84%.

Question: And the “Ratio of Mean M4N-Treated Tumor Size” value ([7]; MCF-7 xenograft, 2 mg M4N i.p. daily, 21 days)?
Answer: The value was 25.5%.

Question: And the “M4N” value ([8]; Bladder)?
Answer: Its value is 6.24 µg/g.

Question: And the “M4N” value ([8]; Blood)?
Answer: The value was 23.13 µg/g.

Question: What about the “M4N” value ([8]; Caecum) of the same molecule?
Answer: The value was 440.23 µg/g.

Question: And the “M4N” value ([8]; Fat)?
Answer: Its value is 17.41 µg/g.

Question: And the “M4N” value ([8]; Heart)?
Answer: Its value is 12.62 µg/g.

Question: And the “M4N” value ([8]; Kidneys)?
Answer: The value was 8.33 µg/g.

Question: And the “M4N” value ([8]; Lg. Intestine)?
Answer: Its value is 350.88 µg/g.

Question: What about the “M4N” value ([8]; Liver) of the same molecule?
Answer: The value was 5.89 µg/g.

Question: What about the “M4N” value ([8]; Lungs) of the same molecule?
Answer: The value was 23.09 µg/g.

Question: What about the “M4N” value ([8]; Pancreas) of the same molecule?
Answer: The value was 28.81 µg/g.

Question: What about the “M4N” value ([8]; Seminal Vesicles) of the same molecule?
Answer: Its value is 16.79 µg/g.

Question: And the “M4N” value ([8]; Small Intestine)?
Answer: The value was 906.27 µg/g.

Question: And the “M4N” value ([8]; Spleen)?
Answer: Its value is 302.78 µg/g.

Question: And the “M4N” value ([8]; Stomach)?
Answer: Its value is 409.27 µg/g.

Question: And the “Blood levels of M4N achieved with minimal toxicity” value [9]?
Answer: Its value is “up to 14,000 ng/ml”.

Question: What about the “Dose safely administered by intravenous infusion” value ([10]; CET vehicle) of the same molecule?
Answer: Its value is “up to 10 mg/kg”.

Question: What about the “Dose safely administered intravenously” value ([10]; DMSO vehicle) of the same molecule?
Answer: The value was “up to 100 mg/kg”.
